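Compound exposure: 48 hours, 5 concentrations, 96-well plates. The concentration for 50% growth inhibition is given as GI50. At the TGI there is no net growth.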

Some test systems named below: OVCAR-4 ovarian; EKVX NSCLC; HOP-62 NSCLC; OVCAR-5 ovarian; NCI-H23 lung; LOX IMVI melanoma; K-562 leukemia; UO-31 renal; NCI/ADR-RES ovarian; HL-60(TB) leukemia.
What all share (test): DTP human tumour cell line panel, 48 h

By TGI is commonly meant the concentration giving total growth inhibition. Lower therefore signals more potent growth arrest. `COc1ccc(CCCC(=O)O)c(C)c1`: the TGI is more than 100000 nM with OVCAR-4 ovarian; more than 100000 nM in the assay with EKVX NSCLC; 75000 nM in the assay with HOP-62 NSCLC; more than 100000 nM in the assay on OVCAR-5 ovarian; more than 100000 nM in the assay with NCI-H23 lung; more than 100000 nM in the assay with LOX IMVI melanoma. The TGI with K-562 leukemia, in the assay with UO-31 renal, in the assay on NCI/ADR-RES ovarian and in the assay with HL-60(TB) leukemia was more than 100000 nM throughout.
As usually defined, the GI50 is the concentration at which growth is held to half of that of the control. In the case of `CCOC(=O)c1c(C)[nH]c(/C=C2\N=C(c3ccc[nH]3)C=C2OC)c1C`, the GI50 in the assay on OVCAR-4 ovarian is 135 nM; with EKVX NSCLC, 469 nM; in the assay with HOP-62 NSCLC it was 40.6 nM; in the assay with OVCAR-5 ovarian, 40.4 nM; with NCI-H23 lung it was 235 nM; in the assay on LOX IMVI melanoma, less than 10 nM. In addition, the GI50 with K-562 leukemia is 50.4 nM; in the assay on UO-31 renal it was 23.9 nM; in the assay on NCI/ADR-RES ovarian it was 45.7 nM; in the assay on HL-60(TB) leukemia, 23.2 nM. Further, the TGI in the assay on OVCAR-4 ovarian came out at 2810 nM; in the assay with EKVX NSCLC it was 3810 nM; in the assay on HOP-62 NSCLC it was 1170 nM; with OVCAR-5 ovarian, 1510 nM; with NCI-H23 lung, 2030 nM; in the assay on LOX IMVI melanoma, 16.8 nM. The TGI stood at 1530 nM in the assay on K-562 leukemia, 58 nM with UO-31 renal, 3450 nM in the assay on NCI/ADR-RES ovarian and 442 nM with HL-60(TB) leukemia.
For `NC(Cc1c[nH]c2ccccc12)C(=O)O` (stereo not given), the TGI with OVCAR-4 ovarian, with EKVX NSCLC, with HOP-62 NSCLC, in the assay with OVCAR-5 ovarian, in the assay with NCI-H23 lung and in the assay with LOX IMVI melanoma was more than 300000 nM throughout. The total growth inhibition concentration (TGI) in the assay on K-562 leukemia is more than 189000 nM; with UO-31 renal, more than 300000 nM; in the assay on NCI/ADR-RES ovarian it was more than 300000 nM; with HL-60(TB) leukemia, more than 300000 nM.
